Test results reported in patent publication US4788217A, “Pesticidal carbamates” (priority 1984, dated 1988).
Where two headings read alike, the source gives them in different places.

How the values were obtained:
[1] = in vivo; set-up: species or system rats; conditions: rat, po
Excerpt: The acute toxicity data (p.o.) of the test compounds are disclosed in Table IV.

[2] = test system: small American flour-beetle (Tribolium confusum) larvae; experiment: Insecticidal effect on flour-beetle larvae, application onto dorsal cuticulum (Example 17, Table III); conditions: topical, 96 h
Description: From the 2,3-dihydro-2,2-dimethyl-7-benzofuranyl-N-methyl-N-(N'-morpholinomethyl)-carbamate, dioxacarb and carbofuran series of dilutions are prepared in acetone: the active ingredient content of the solutions amounts to 40.5, 13.5, 4.5, 1.5, 0.5, 0.16 and 0.05 […] per […], respectively. The solutions (0.5 μl) are applied with the aid of a Hamilton syringe onto the dorsal cuticulum of small American flour-beetle (Tribolium confusum) of L6 larva stage. The age of the larvae is determined on the basis of the average larva weight (=1.81±0.37 mg/larva) See Sokoloff 1972.
Two replicates are used for each concentration (10 individuals per replicate). The insecticidal effect of the test compounds is evaluated after 96 hours on the basis of the percental ratio of killed larvae.

[3] = test system: house fly (Musca domestica); experiment: Insecticidal activity on house fly, treated filter paper discs (Example 16, Table II); type: in vivo; set-up: mortality: concentration or dose not given beside the values
Description: From the test compounds a series of dilution disclosed in Example 15 is prepared whereupon 3-5 days' old house fly (Musca domestica) images being under slight carbon dioxide narcosis are placed onto the infected treated filter paper discs. Three replicates ([…] each) are used for each concentration. The insecticidal activity of the test compounds and that of the referent compounds is evaluated after 24 hours on the basis of the percental ratio of the killed and paralyzed flies. In the solvent control grop there was no mortality.

[4] = test system: bean beetle (Acanthoscalides obtectus); experiment: Pesticidal effect on bean beetle, treated filter paper discs (Example 15, Table I); type: in vivo; conditions: 24 hours, killed and paralysed
Description: From the compounds of the present invention a series of dilution is prepared in acetone; concentration 1, 0.2, 0.04, 0.008 and 0.0016%, respectively. The solutions thus obtained (0.5 ml) are poured dropwise onto Whatman No. 1. filter paper discs (diameter 90 mm) placed in Petri-dishes. After the solvent has evaporated 1-2 weeks' old bean beetle (Acanthoscalides obtectus) images are placed into the Petri-dishes. 3 replicates (10-15 insects each) are used for each concentration. The pesticidal effect of the test compounds is evaluated after 24 hours, on the basis of the percental ratio of the killed and paralysed individuals.

[5] = test system: rats; conditions: p.o.; cited from earlier work
[6] = test system: house fly (Musca domestica); experiment: whole plant or invertebrate; type: in vivo
Description: From the compound according to Example 1 a series of dilution is prepared in acetone; concentration: 0.6, 0.2, 0.067 and 0.022% by weight, respectively. From these solutions 0.5 ml each is poured dropwise onto Whatman No. 1 filter paper discs (diameter 90 mm) placed in Petri-dishes. The discs were previously treated with 0.5 ml of a 0.04% piperonyl butoxide solution. After the evaporation of the acetone 3-5 days' old house fly (Musca domestica) imagos being under slight carbon dioxide narcosis are placed onto the filter paper discs. The test is evaluated as described in Example 16.

[7] = concentration of active ingredient 0.0016%
[8] = concentration of active ingredient 0.008%
[9] = concentration of active ingredient 0.04%
[10] = concentration of active ingredient 0.2%
[11] = concentration of active ingredient 1%
[12] = female rats, p.o., read-out: acute toxicity (p.o.) on female rats
[13] = male rats, p.o., read-out: acute toxicity (p.o.) on male rats

| SMILES | mortality at 0.03 µg/larva [2] | mortality at 0.16 µg/larva [2] | mortality at 0.5 µg/larva [2] | mortality at 1.5 µg/larva [2] | mortality at 4.5 µg/larva [2] | mortality at 13 µg/larva [2] | mortality at 40.5 µg/larva [2] | mortality % [4, 7] | mortality % [4, 8] | mortality % [4, 9] | mortality % [4, 10] | mortality % [4, 11] | mortality at 0.0016 % ([3]; 24 h) | mortality at 0.04 % ([3]; 24 h) | mortality at 0.08 % ([3]; 24 h) | mortality at 0.2 % ([3]; 24 h) | mortality at 1 % ([3]; 24 h) | LD50 [1, 12] | LD50 [1, 13] | also measured |
| --- | --- | --- | --- | --- | --- | --- | --- | --- | --- | --- | --- | --- | --- | --- | --- | --- | --- | --- | --- | --- |
| CNC(=O)Oc1cccc2c1OC(C)(C)C2 [Carbofuran, 2,3-dihydro-2,2-dimethyl-benzofurane-7-yl-methyl-carbamate, reference compound] | 30% | 70% | 100% | 100% | 100% | 100% | 100% | 0% | 93% | 100% | 100% | 100% | – | – | – | – | – | – | – | LD50 ([1]; acute toxicity (p.o.) on male rats): 8 to 14 mg/kg; mortality ([3]; 24 hours, killed and paralyzed): 53%; mortality at 0.0016 % ([3]; concentration of active ingredient 0.0016%, 24 hours, killed and paralyzed, read-out: mortality %): 43%; mortality at 0.04 % ([3]; concentration of active ingredient 0.04%, 24 hours, killed and paralyzed, read-out: mortality %): 67%; mortality at 0.2 % ([3]; concentration of active ingredient 0.2%, 24 hours, killed and paralyzed, read-out: mortality %): 100%; mortality at 1 % ([3]; concentration of active ingredient 1%, 24 hours, killed and paralyzed, read-out: mortality %): 100%; acute toxicity LD50 [5]: 8 to 10 mg/kg; mortality at 0.022 % ([6]; concentration of active ingredient 0.022%, evaluated as Example 16 (24 hours), read-out: mortality %): 71%; mortality at 0.067 % ([6]; concentration of active ingredient 0.067%, evaluated as Example 16 (24 hours), read-out: mortality %): 100%; mortality at 0.2 % ([6]; concentration of active ingredient 0.2%, evaluated as Example 16 (24 hours), read-out: mortality %): 100%; mortality at 0.6 % ([6]; concentration of active ingredient 0.6%, evaluated as Example 16 (24 hours), read-out: mortality %): 100% |
| CNC(=O)Oc1ccccc1C1OCCO1 [Dioxacarb, reference compound] | 25% | 40% | 45% | 50% | 50% | 55% | 80% | 0% | 30% | 43% | 93% | 100% | 0% | 17% | 10% | 90% | 100% | – | – | – |
| CN(CN1CCOCC1)C(=O)Oc1cccc2c1OC(C)(C)C2 [Example 1, 2,3-dihydro-2,2-dimethyl-7-benzofuranyl-N-methyl-N-(N'-morpholinyl-methyl)-carbamate] | 75% | 80% | 90% | 90% | 95% | 100% | 100% | 0% | 50% | 87% | 97% | 100% | 30% | 43% | 40% | 80% | 100% | 50 mg/kg | 50 mg/kg | mortality at 0.022 % ([6]; 24 h): 32%; mortality at 0.067 % ([6]; 24 h): 78%; mortality at 0.2 % ([6]; 24 h): 100%; mortality at 0.6 % ([6]; 24 h): 100% |
| CC(C)NCN(C)C(=O)Oc1cccc2c1OC(C)(C)C2 [Example 2, 2,3-dihydro-2,2-dimethyl-7-benzofuranyl-N-methyl-N-/isopropyl-amino-methyl/-carbamate] | – | – | – | – | – | – | – | 0% | 40% | 60% | 100% | 100% | 0% | 30% | 10% | 67% | 90% | – | – | – |
| CCOC(=O)CCN(CN(C)C(=O)Oc1cccc2c1OC(C)(C)C2)C(C)C [Example 3, 2,3-dihydro-2,2-dimethyl-7-benzofuranyl-N-methyl-N-[(N'-isopropyl)-N'-(β-carbethoxy-ethyl)-amino-methyl]-carbamate] | – | – | – | – | – | – | – | 0% | 27% | 53% | 80% | 97% | 0% | 40% | 33% | 70% | 97% | 31.8 mg/kg | 23.3 mg/kg | – |
| COc1ccc(CCNCN(C)C(=O)Oc2cccc3c2OC(C)(C)C3)cc1OC [Example 4, 2,3-dihydro-2,2-dimethyl-7-benzofuranyl-N-methyl-N-[3,4-(dimethoxy)-phenylethyl]-amino-methyl-carbamate] | – | – | – | – | – | – | – | 0% | 37% | 70% | 87% | 100% | 0% | 37% | 20% | 83% | 100% | – | – | – |
